In patent publication US20020169193A1, “Alkylphenyliminoimidazolidine derivatives for treating urinary incontinence” (priority 2001, published 2002):

Legend:
CYP2D6 = CYP2D6 (Homo sapiens, UniProt P10635); assay: Metabolism: substrate breakdown by enzyme CYP2D6; assay type: in vitro ADME
Method: To determine the metabolism the enzyme CYP2D6 was allowed to act on the test substances. After 30 minutes, a check was made to see how much of the test substance put in had been degraded by the enzyme.

HLM = assay: Metabolism: decomposition under the effect of HLM; assay type: in vitro ADME
Method: The decomposition under the effect of the enzyme HLM/60 minutes was tested analogously.

the Dog = assay: Efficacy: maximum contraction in the dog compared with noradrenaline; settings: percentage of contraction compared with noradrenaline
Method: (§1) The efficacy and selectivity of the compounds is determined as follows:
(§2) Maximum contraction in the dog and activity on human urethra are percentages of contraction compared with noradrenaline. Selectivity in the dog is the percentage contraction of the dog's femoral artery at 10^−5 M—percentage contraction of the carotid artery in the dog at 10^−5 M.

Human Urethra = assay: Efficacy: contraction of human urethra compared with noradrenaline; settings: percentage of contraction compared with noradrenaline
Method: as §1, §2

[1] = system: dog's femoral artery / carotid artery in the dog; assay: Selectivity in the dog: femoral artery versus carotid artery contraction; settings: percentage contraction of femoral artery at 10^−5 M — percentage contraction of carotid artery at 10^−5 M
Method: as §1, §2

[2] = Bioavailability, oral versus intravenous administration in rats, plasma HPLC; assay type: in vivo; settings: male fasted rats, oral vs intravenous, pooled plasma; for bioavailability: rat
Method: To determine the bioavailability, the test substances were administered orally to a group of 8 male fasted rats. As a control, animals in an identical second group were given the test substances intravenously. At specified times after administration (10 minutes, 30 minutes, 1 hour, 2 hours and 4 hours, and additionally 6 hours in the case of the animals in the oral group) 1 mL blood samples were taken from the animals in both groups. The blood samples taken in each group were mixed together (8 mL). The content of the corresponding test substances in the blood for the appropriate time was determined from the plasma after further working up by HPLC (High Performance Liquid Chromatography) using standard methods and correlated for the two groups.

CYP2D6, sequence (P10635 whole entry): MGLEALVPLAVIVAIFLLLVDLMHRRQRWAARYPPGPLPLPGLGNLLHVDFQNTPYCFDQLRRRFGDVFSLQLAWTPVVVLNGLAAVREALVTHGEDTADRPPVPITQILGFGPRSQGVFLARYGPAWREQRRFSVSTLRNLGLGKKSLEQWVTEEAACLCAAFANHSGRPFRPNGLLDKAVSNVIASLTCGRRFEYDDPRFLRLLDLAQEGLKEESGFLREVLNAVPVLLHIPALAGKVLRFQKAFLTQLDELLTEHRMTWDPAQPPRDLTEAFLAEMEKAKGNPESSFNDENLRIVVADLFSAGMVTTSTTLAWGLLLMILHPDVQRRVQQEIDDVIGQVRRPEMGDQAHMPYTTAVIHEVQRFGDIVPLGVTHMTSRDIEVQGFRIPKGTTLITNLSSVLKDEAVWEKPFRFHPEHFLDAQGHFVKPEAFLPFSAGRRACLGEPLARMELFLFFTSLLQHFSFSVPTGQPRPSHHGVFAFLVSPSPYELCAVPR

Row | Structure (SMILES) | % Substrate Breakdown After 30 Minutes Incubation with CYP2D6 (CYP2D6) | % Substrate Breakdown After 60 Minutes Incubation with HLM (HLM) | Activity in the Dog (the Dog) | Activity on Human Urethra (Human Urethra) | Selectivity in the Dog [1] | Bioavailability in % [2] | bioavailability [2]
1 | Cc1c(NC2=NCCN2)cccc1C(C)C [Compound 1, 3′-isopropyl-2′-methylphen-1′-yl-2-iminoimidazolidine] | 18.2% | 13.5% | 78% | 11% | 0.7 | – | –
2 | COc1ccc(C(C)(C)C)cc1N=C1NCCN1 [Compound 2, 3′-tert-butyl-6′-methoxyphen-1′-yl-2-iminoimidazolidine] | 0.7% | 2.7% | 71% | 30% | 0.6 | 34% | –
3 | Cc1c(C(C)C)ccc(Cl)c1NC1=NCCN1 [Compound 3, 6′-chloro-3′-isopropyl-2′-methylphen-1′-yl-2-iminoimidazolidine] | 6.1% | 11.7% | 70% | 41% | 0.7 | – | 8%
4 | Cc1c(NC2=NCCN2)ccc(Cl)c1C(C)C [Compound 4, 4′-chloro-3′-isopropyl-2′-methylphen-1′-yl-2-iminoimidazolidine] | 7.6% | 5.5% | 59% | – | 0.5 | – | –
5 | Cc1c(C(C)C)ccc(Br)c1NC1=NCCN1 [Compound 5, 6′-bromo-3′-isopropyl-2′-methylphen-1′-yl-2-iminoimidazolidine] | 8.7% | 7.5% | 34% | – | 0.4 | – | –
6 | CC(C)(C)c1ccc(Br)c(N=C2NCCN2)c1 [Compound 6, 6′-bromo-3′-tert-butylphen-1′-yl-2-iminoimidazolidine] | 3.0% | 2.8% | 28% | – | – | – | –
7 | Cc1c(NC2=NCCN2)ccc(Br)c1C(C)C [Compound 7, 4′-bromo-3′-isopropyl-2′-methylphen-1′-yl-2-iminoimidazolidine] | 5.0% | – | 70% | 21% | 0.7 | – | 53%
